Reference: patent publication US12679878B2, “CRF2 receptor agonists and their use in therapy” (SANOFI, priority 2020, dated 2026)
Starred links: 1 amine or outer side, 2 acyl side, 3 side chain; linkers in the order of their positions; H or OH if unused. Non-standard residues stand in square brackets, D forms with d. Residues, ends and D or L forms follow the SMILES beside them. Groups on a side chain read outwards from the residue. *: point of attachment. C18 diacid = O=C(O)CCCCCCCCCCCCCCCCC(=O)*; γGlu = O=C(O)[C@H](CCC(=O)[*:2])N[*:1]; AEEA = NCCOCCOCC(=O)O; Aib = CC(C)(N)C(=O)O

Legend:
[1] = Pharmacokinetic properties in mice, i.v. or s.c. (Example 16); type: in vivo, C57BI/6 mice; settings: female, C57BL/6, plasma, Mouse
Experimental: (§1) The pharmacokinetic properties of exemplary peptides SEQ ID NO: 35 and SEQ ID NO: 24 were assessed in mice and rats.
(§2) The test compound was administered in a suitable buffer system (PBS buffer solution at pH 7.4, or DPBS solution) at concentrations of 0.05, 0.1, 0.5 or 1 mg/ml depending on the dose, species and administration volume. Female C57BI/6 mice and male SD rate were dosed 0.1 mg/kg or 0.3 mg/kg intravenously or subcutaneously. The animals were sacrificed, and blood samples were collected after 0.08, 0.25, 0.5, 1, 2, 4, 8, 24, 32, and 48 hours post-intravenous administration and 0.25, 0.5, 1, 2, 4, 8, 24, 32, and 48 hours post-subcutaneous administration, respectively. Plasma samples were analysed after protein precipitation via liquid chromatography mass spectrometry (LC/MS). Pharmacokinetic parameters and half-life were calculated using Phoenix-WinNonlin 8.1 using a non-compartmental model and linear trapezoidal interpolation calculation.

[2] = Pharmacokinetic properties in rats, i.v. or s.c. (Example 16); type: in vivo, SD rat; settings: Rat
Experimental: as §1, §2

endogenous human CRF2 = target: T1, endogenous human CRF2 (Homo sapiens, UniProt Q13324); assay: cAMP agonist effect in NCI-H82 cells expressing endogenous human CRF2 (Example 10); type: cell-based; settings: cAMP HTRF, 5 min activation
T1 construct: endogenous in cells; host or cells: NCI-H82
T1 sequence (Q13324 1-411): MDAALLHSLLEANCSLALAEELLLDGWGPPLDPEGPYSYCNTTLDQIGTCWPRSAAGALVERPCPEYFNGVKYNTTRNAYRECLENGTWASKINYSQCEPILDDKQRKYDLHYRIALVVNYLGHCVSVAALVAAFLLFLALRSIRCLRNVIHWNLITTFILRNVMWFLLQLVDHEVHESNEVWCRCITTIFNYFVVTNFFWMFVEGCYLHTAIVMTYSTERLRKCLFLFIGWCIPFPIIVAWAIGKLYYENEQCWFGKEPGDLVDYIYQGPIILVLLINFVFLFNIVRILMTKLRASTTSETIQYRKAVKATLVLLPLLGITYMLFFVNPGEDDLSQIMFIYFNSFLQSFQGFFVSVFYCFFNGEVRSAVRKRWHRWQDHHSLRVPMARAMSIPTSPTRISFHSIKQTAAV
Experimental: The agonist effect of the compounds was assessed in NCI-H82 cells expressing endogenous human CRF2.
NCI-H82 cells in suspension were plated in low-volume 384-well plates at a density of 30000 cells/well in 5 μl of test medium (RPMI+1 mM IBMX). The plates were briefly centrifuged at 800 rpm to allow the cell suspension to move to the bottom of the wells and then incubated for 2 hours at 37° C. in 5% CO2. 5 μl of test compounds at appropriate concentrations (10-11 to 3×10-7) diluted in test medium were then transferred in 384 wells plates. After 5 min of activation, the reaction was stopped by addition of HTRF revelation reagents with a multidrop dispenser. The two reagents were 5 μl/well of Anti-CAMP-cryptate diluted 20-fold in conjugate and lysis buffer and 5 μl/well of cAMP-D2 diluted 20-fold in conjugate and lysis buffer. After one-hour incubation at room temperature in the dark, the plates were read on a Clariostar apparatus.

[3] = male, Sprague-Dawley (SD), plasma, iv, 0.1 mg/kg i.v.
[4] = male, Sprague-Dawley (SD), plasma, sc, 0.1 mg/kg s.c.

AUC(0-t) ([1]; iv, 0.3 mg/kg i.v.) [ng·h/mL]	Cmax ([1]; iv, 0.3 mg/kg i.v.) [ng/mL]	half-life ([1]; iv, 0.3 mg/kg i.v.) [h]	clearance ([1]; iv, 0.3 mg/kg i.v., read-out: CI (converted)) [mL/min/kg]	AUC(0-t) ([1]; sc, 0.1 mg/kg s.c.) [ng·h/mL]	Cmax ([1]; sc, 0.1 mg/kg s.c.) [ng/mL]	half-life ([1]; sc, 0.1 mg/kg s.c.) [h]	AUClast ([2]; 0.1 mg/kg i.v.) [ng·h/mL]	clearance ([2]; male, SD, plasma, iv, 0.1 mg/kg i.v., read-out: CI (converted)) [mL/min/kg]	bioavailability ([2]; male, SD, plasma, sc, 0.1 mg/kg s.c.) [%]	Cmax [2, 3] [ng/mL]	half-life [2, 3] [h]	AUC(0-t) [2, 4] [ng·h/mL]	Cmax [2, 4] [ng/mL]	half-life [2, 4] [h]	EC50 (endogenous human CRF2) [nM]	Compound
23700	4150	6.4	0.21	18500	1410	5.5	2790	0.597	45.8	1900	3	1200	131	6.1		CC[C@H](C)[C@H](N)C(=O)N[C@H](C(=O)N[C@@H](CC(C)C)C(=O)N[C@@H](CO)C(=O)N[C@@H](CC(C)C)C(=O)N[C@@H](CC(=O)O)C(=O)N[C@H](C(=O)N1CCC[C@H]1C(=O)N[C@H](C(=O)N[C@@H](CCCCN)C(=O)N[C@@H](CC(C)C)C(=O)N[C@@H](CCCCNC(=O)COCCOCCNC(=O)COCCOCCNC(=O)CC[C@H](NC(=O)CCCCCCCCCCCCCCCCC(=O)O)C(=O)O)C(=O)N[C@@H](CCCCN)C(=O)N[C@H](C(=O)N[C@@H](CC(C)C)C(=O)N[C@@H](CC(C)C)C(=O)N[C@@H](CCC(=O)O)C(=O)N[C@@H](CCC(N)=O)C(=O)N[C@@H](CCC(=O)O)C(=O)N[C@@H](CCCCN)C(=O)N[C@@H](CCC(N)=O)C(=O)N[C@@H](CCCCN)C(=O)N[C@@H](CCCCN)C(=O)N[C@@H](CCC(N)=O)C(=O)N[C@@H](CCCNC(=N)N)C(=O)N[C@@H](CCC(=O)O)C(=O)N[C@@H](CCC(N)=O)C(=O)N[C@@H](C)C(=O)N[C@@H](CCC(=O)O)C(=O)N[C@H](C(=O)N[C@@H](CC(N)=O)C(=O)N[C@@H](CCCCN)C(=O)N[C@@H](CCC(N)=O)C(=O)N[C@H](C(=O)N[C@@H](CC(C)C)C(=O)N[C@@H](C)C(=O)N[C@@H](CCC(N)=O)C(=O)N[C@H](C(N)=O)C(C)C)[C@@H](C)CC)[C@@H](C)O)[C@@H](C)CC)[C@@H](C)CC)C(C)C)C(C)C [compound 35] (H-IVLSLDVPIKLK([AEEA-AEEA-γGlu-C18 diacid])KILLEQEKQKKQREQAETNKQILAQV-NH2; N-terminus assumed)
															110	CC[C@H](C)[C@H](N)C(=O)N[C@H](C(=O)N[C@@H](CC(C)C)C(=O)N[C@@H](CO)C(=O)N[C@@H](CC(C)C)C(=O)N[C@@H](CC(=O)O)C(=O)N[C@@H](C(=O)N1CCC[C@H]1C(=O)N[C@H](C(=O)N[C@@H](CCCCN)C(=O)N[C@@H](CC(C)C)C(=O)N[C@@H](CCCCNC(=O)COCCOCCNC(=O)COCCOCCNC(=O)CC[C@H](NC(=O)CCCCCCCCCCCCCCCCC(=O)O)C(=O)O)C(=O)N[C@@H](CCC(N)=O)C(=O)N[C@H](C(=O)N[C@@H](CC(C)C)C(=O)N[C@@H](CC(C)C)C(=O)N[C@@H](CCCCN)C(=O)N[C@@H](CCC(N)=O)C(=O)N[C@@H](CCC(=O)O)C(=O)N[C@@H](CCCNC(=N)N)C(=O)N[C@@H](CCC(N)=O)C(=O)N[C@@H](CCCCN)C(=O)NC(C)(C)C(=O)N[C@@H](CCC(N)=O)C(=O)N[C@@H](CCCNC(=N)N)C(=O)N[C@@H](CCC(N)=O)C(=O)N[C@@H](CCC(N)=O)C(=O)N[C@@H](C)C(=O)N[C@@H](CCC(=O)O)C(=O)N[C@@H](CCCCN)C(=O)N[C@@H](CC(N)=O)C(=O)N[C@@H](CCCCN)C(=O)N[C@@H](CCC(N)=O)C(=O)N[C@H](C(=O)N[C@@H](CC(C)C)C(=O)N[C@@H](C)C(=O)N[C@@H](CCC(N)=O)C(=O)N[C@H](C(N)=O)C(C)C)[C@@H](C)CC)[C@@H](C)CC)[C@@H](C)CC)C(C)C)C(C)C [compound 135] (H-IVLSLD[dV]PIKLK([AEEA-AEEA-γGlu-C18 diacid])QILLKQERQK[Aib]QRQQAEKNKQILAQV-NH2; N-terminus assumed)
